This is an account of results in patent US20090318479A1, “SUBSTITUTED RING FUSED AZINES AND THEIR USE IN CANCER THERAPY” (Auckland Uniservices Limited, priority 2006, published 2009).

Data set [1] deals with NZOV11 human ovarian cell line. The data set can be described thus: restoration of p53 function: G1-phase arrest after irradiation plus paclitaxel, flow cytometry. The class given is cell-based. The conditions noted are these: 9 Gray plus 200 nM paclitaxel, 24 hours; for AC50: NZOV11, p53 mutated at position 248, G1 proportion restored to (a+b)/2, read-out: AC-50% (concentration of drug that restores the G1-phase proportion of the cultured cells); for Activity: NZOV11, p53 mutated at position 248 (arginine to glutamine). The text has this:
Description of the in vitro assay: This protocol employs a novel assay that was used to measure the restoration of one of the principal p53 functions, that of regulating entry into S-phase (DNA replication) of the cell division cycle. Without being bound to any specific understanding, it is thought that these compounds may act to restore the known ability of p53 to induce cell cycle arrest in the G1-phase of the cell division cycle through induction of the p21^WAF1 protein in response to DNA damage (Levine. Cell 1997, 88, 323-31). Logarithmic phase cultures of tumour cell lines are irradiated in the presence of an inhibitor of cell division (to prevent the generation of G1-phase cells by cell division), and then allowed to grow for approximately one cell division time. If p53 function is present it will inhibit the progression of cells from the G1-phase to the S-phase of the cell division cycle, as a consequence of induction of the p21^WAF1 protein. If p53 function is absent there will be little or no cells in the G1-phase of the cell division cycle at the end of the incubation. […] The ability of an individual drug to restore p53 function is therefore evaluated against a positive control of non-irradiated cells and a negative control of cells that have been treated with a combination of radiation and a mitotic inhibitor.
Logarithmic phase cultures of tumour cell lines are plated in insulin-transferrin-selenite growth medium on 100 mm plates (10 ml) at a density of 10^4 cells/ml, using the standard cell culture conditions that are established in this laboratory (Marshall et al., Oncol Res 1994, 5, 301-9). The test compound is added to some cultures at a range of concentrations up to 20 μM. The anticancer drug paclitaxel is used as an inhibitor of cell division and is added to some cultures at a concentration of 200 nM. Cultures are irradiated where indicated at a dose of 9 Gray. Following irradiation, cultures are incubated at 37° C. for 24 hours, the cells harvested, washed once and fixed overnight in 100% methanol at −20° C. at a density of 5×10^5 cells/ml. Cells are rehydrated by washing in phosphate buffered saline with 2% foetal bovine serum, then incubated with RNAase A (0.25 mg/ml) at 37° C. for 30 min. Cells are then washed and resuspended in phosphate buffered saline containing 0.1 mM EDTA and 25 μg/ml propidium iodide. Cycle analysis (red fluorescence) is performed using a Becton Dickinson (Mountain View, Calif.) FACScan flow cytometer. Cellular DNA content profiles are analyzed using Modfit software (Verity Software House, Inc.) to provide estimates of the proportions of G1-, S- and G2/M-phase cells, and of other cellular material. By comparing the effects of irradiation and addition of paclitaxel separately, the assay provides evidence of non-specific inhibition of cell growth from changes in cell number, cell cycle distribution, and production of cellular debris.
Using cell cultures that have been both irradiated and treated with paclitaxel, the proportion of cells in G1-phase is plotted against the concentration of added test compound. Depending on the cell line, the proportion of G1-phase cells in the absence of added compound is generally less than 5% (defined as a). […] The 50%-activating concentration (AC-50%) of the test compound is defined as the concentration that restores the G1-phase proportion of the cultured cells to a value of (a+b)/2.
The NZOV11 human ovarian cell line, previously developed in this laboratory according to methods that have previously been published (Baguley B C et al., Eur J Cancer 1998, 34, 1086), was used in these studies to compare the activity of each of the drugs.

The subject of data set [2] is Saos-2 osteosarcoma cells. The conditions noted are these: cited from earlier work.
Data set [3] deals with A375.S2 melanoma (mutated at p53 position 249). The conditions noted are these: A375.S2 melanoma cells in nude mice; cited from earlier work.
Data set [4] concerns DLD-1 colon carcinoma (mutated at p53 position 241). Particulars: DLD-1 colon carcinoma cells in nude mice; cited from earlier work.
For data set [5] the following is noted: background statement; cited from earlier work.
For data set [6], the system named is other cell lines with mutations in other parts of the p53 protein. Put plainly: restoration of p53 function in other cell lines with other p53 mutations. The conditions noted are these: a number of other cell lines with mutations in other parts of the p53 protein. The class given is cell-based.
A further data set deals with C57Bl mice. The data set can be described thus: maximum tolerated intraperitoneal single dose and signs of toxicity in mice. The class given is in vivo. The procedure:
(§1) Pharmacological studies in mice: A further consideration in this project is whether effective plasma concentrations can be achieved in vivo without significant side-effects. C57Bl mice were maintained under standard conditions in accordance with institutional ethical guidelines. The maximum tolerated intraperitoneal single dose of compound 3 was determined by administering different doses of drug to mice and found to be 100 mg/kg. […] An effective analytical procedure for the determination of concentrations of 3 in mouse plasma was developed, using high performance liquid chromatography and detection by ion trap mass spectrometry. The method is broadly applicable to compounds in the series. Blood samples were obtained under terminal anesthesia either before or at 1, 2 and 4 hours after a single intraperitoneal dose of 100 mg/kg. Plasma was prepared and analyzed using the method developed above.

Data set [7] is described as follows: plasma concentrations after a single intraperitoneal dose. The class given is in vivo. Particulars: C57Bl mice, single intraperitoneal 100 mg/kg, 1, 2 and 4 hours, FIG. 1. Here is the method: Illustrates the in vivo plasma concentrations of compound 3 over time following a single intraperitoneal administration (100 mg/kg) to C57Bl mice.
as §1

The test system of data set [8] is NZM4 human tumour xenografts. Put plainly: growth of NZM4 human tumour xenografts in immunodeficient (rag 1) mice. The class given is in vivo. The procedure:
Illustrates the growth curves for immunodeficient mice with NZM4 human tumour xenografts. Mice were either untreated (closed circles), treated with 2 Gray radiation alone (open circles) or treated with radiation combined with compound 3 (100 mg/kg per dose).
In vivo estimation of ability to restore p53 function: A further consideration in this project is to determine whether members of this series have the ability to inhibit the growth of human cell lines that contain mutant p53 protein. This consideration was addressed with the use of compound 3, for which in vitro evidence has been obtained for ability to restore p53 function (Table 2) and for which pharmacological evidence has been obtained for biologically relevant plasma concentrations in vivo in the absence of significant side-effects (FIG. 1). Immunodeficient (rag 1) mice were maintained under standard conditions in accordance with institutional ethical guidelines. Cells from the NZM4 cell line (Marshall E S et al., Eur J Cancer 1994; 30A: 1370-1376) were grown in culture and harvested. Mice were injected subcutaneously with 10^7 cells and tumours allowed to grow to a diameter of approximately 5 mm. Mice received whole-body irradiation of 2 Gray and were then administered compound 3 by intraperitoneal injection immediately after, and 1 and 2 days following, irradiation. […] Control animals received no treatment or were irradiated in the absence of drug administration.
Tumour growth was recorded three times weekly by measuring the minor and major dimensions of the tumour and tumour volumes were calculated as 0.52 times (minor dimension)^2 times (major dimension). Tumour volumes were normalized to the initial volume and plotted versus time. FIG. 2 illustrates the growth curves for immunodeficient mice with NZM4 human tumour xenografts. Mice were either untreated (closed circles), treated with 2 Gray radiation alone (open circles) or treated with radiation combined with compound 3 (100 mg/kg per dose). […]
(In general: Xenograft models place foreign cells or tissue in a host animal.)

Where two headings read alike, the source gives them in different places.

On to `CN(C)CCCNc1nc(-c2cc3ccccc3o2)nc2cc(C(F)(F)F)ccc12.Cl.Cl` [Compound 35, N^1-[2-(1-Benzofuran-2-yl)-7-(trifluoromethyl)-4-quinazolinyl]-N^3,N^3-dimethyl-1,3-propanediamine dihydrochloride], for which the AC50 in data set [1] (Homo sapiens) was determined as 3.4 µM. Moreover, in data set [1], the result was Active.

Consider `Cc1c(-c2nc(NCCCN(C)C)c3ccccc3n2)oc2ccccc12.Cl.Cl` [Compound 60, N^1,N^1-Dimethyl-N^3-[2-(3-methyl-1-benzofuran-2-yl)-4-quinazolinyl]-1,3-propanediamine dihydrochloride], for which the AC50 in data set [1] (Homo sapiens) is 18 µM. For the same compound, in data set [1], the outcome was Active.

For the compound `CN(C)CCCNc1nc(-c2cc3ccccc3o2)nc2ccc([N+](=O)[O-])cc12` [Compound 29, N^1-[2-(1-Benzofuran-2-yl)-6-nitro-4-quinazolinyl]-N^3,N^3-dimethyl-1,3-propanediamine], the AC50 in [1] (Homo sapiens) turned out to be 12 µM. Further, in [1], the outcome was Active.

In the case of `COc1ccc(/C=C/c2nc(NCCCN(C)C)c3ccccc3n2)cc1` [(i)], the “ability of mutant p53 protein to induce the cellular p21 gene” value in [2] (Saos-2 osteosarcoma cells) is recorded as “restored the ability of mutant p53 protein to induce the cellular p21 gene”. For the same compound, in data set [2] (background statement, no test named), the potency result was “not very potent”. Further, the “suppression of tumour growth” value in data set [3] and in data set [4] was “able to suppress the growth” each time. In addition, the chemical stability entry in data set [5] is given as “chemically unstable”.

In the case of `CN(C)CCCNc1cc(-c2cc3ccccc3o2)nc2ccccc12.Cl.Cl` [Compound 80, N^1-[2-(1-benzofuran-2-yl)-4-quinolinyl]-N^3,N^3-dimethyl-1,3-propanediamine dihydrochloride], the AC50 in data set [1] (Homo sapiens) worked out at 15 µM. Besides, in data set [1], the result was Active.

For the compound `CN(C)CCCNc1nc(-c2cc3ccccc3o2)nc2ccc(N)cc12.Cl.Cl` [Compound 30, N^1-[2-(1-Benzofuran-2-yl)-N^4-[3-(dimethylamino)propyl]-4,6-quinazolinediaminedihydrochloride], the AC50 in [1] stood at 9.5 µM.

Consider `CN(C)CCCNc1nc(-c2cc3ccccc3s2)nc2ccccc12.Cl.Cl` [Compound 75, N^1-[2-(1-Benzothien-2-yl)-4-quinazolinyl]-N^3,N^3-dimethyl-1,3-propanediamine dihydrochloride], for which, in data set [1] (Homo sapiens), the AC50 is 8 µM. In [1], the outcome was Active.

Consider `Cc1cccc2c(NCCCN(C)C)nc(-c3cc4ccccc4o3)nc12.Cl.Cl` [Compound 45, N^1-[2-(1-Benzofuran-2-yl)-8-methyl-4-quinazolinyl]-N^3,N^3-dimethyl-1,3-propanediamine dihydrochloride], for which the AC50 in [1] (Homo sapiens) came to 5.8 µM. Further, the outcome in data set [1] was Active.

For the compound `CN(C)CCCNc1nc(-c2cc3ccccc3o2)nc2ccc(N)cc12.Cl.Cl` [Compound 30], the result in [1] was Active.

As to `CN(C)CCCNc1nc(-c2cc3ccccc3o2)nc2ccccc12.Cl.Cl` [Compound 3, N^1-[2-(1-benzofuran-2-yl)-4-quinazolinyl]-N^3,N^3-dimethyl-1,3-propanediamine dihydrochloride], the AC50 in data set [1] (Homo sapiens) stood at 8.5 µM. In addition, the outcome in data set [1] was Active. In [6], the “ability to restore p53 function” value is reported as “able to restore p53 function”. In addition, the “maximum tolerated intraperitoneal single dose” value in the data set on C57Bl mice (single intraperitoneal dose) is recorded as 100 mg/kg. Also, in the data set with C57Bl mice (single intraperitoneal dose of 100 mg/kg), the “signs of toxicity (weight loss, ruffling of fur, behavioral changes)” value is “No signs of toxicity”. Moreover, the achieved plasma concentrations entry in [7] is reported as “comparable to the AC-50% value”. Further, the “time to reach three times the initial tumour volume” value in data set [8] (2 Gray radiation together with compound, 100 mg/kg per dose intraperitoneal on days 0, 1 and 2 after irradiation) was found to be 17 days. Besides, the signs of toxicity result in data set [8] (rag 1 mice, 2 Gray whole-body irradiation plus intraperitoneal compound immediately after and 1 and 2 days after) is “No signs of toxicity”. Besides, in data set [8] (rag1 mice, drug alone at the same schedule, no irradiation), the “tumour growth rate with drug alone compared with mice not treated with drug” value is “identical rate”.

Turning to `Cc1ccc2c(NCCC3CCCN3C)nc(-c3cc4ccccc4o3)nc2c1C.Cl.Cl` (centres unmarked) [Compound 79, 2-(1-Benzofuran-2-yl)-7,8-dimethyl-N-[2-(1-methyl-2-pyrrolidinyl)ethyl]-4-quinazolinamine dihydrochloride], the AC50 in data set [1] (Homo sapiens) came out at 7.5 µM. In [1], the outcome was Active.

`Cc1ccc2c(N(C)CCC(C)N)nc(-c3cc4ccccc4o3)nc2c1C.Cl.Cl` (centres unmarked) [Compound 58, N^1-[2-(1-Benzofuran-2-yl)-7,8-dimethyl-4-quinazolinyl]-3,N-dimethyl-1,3-propanediamine dihydrochloride]: in [1] (Homo sapiens), the AC50 is 2.7 µM. Besides, in data set [1], the result was Active.
